This passage reports IC50 results from patent EP4772509A1, “KINESIN KIF18A INHIBITOR, AND APPLICATION THEREOF” (Shanghai Apeiron Therapeutics Company Limited, priority 2023, dated 2025).

In test [1] the target is T1, Human KIF18A (amino acid sequence 1-417) (Homo sapiens, UniProt Q8NI77).
T1 construct: purchased Viva Biotech (Shanghai) Ltd
T1 sequence (Q8NI77 1-417): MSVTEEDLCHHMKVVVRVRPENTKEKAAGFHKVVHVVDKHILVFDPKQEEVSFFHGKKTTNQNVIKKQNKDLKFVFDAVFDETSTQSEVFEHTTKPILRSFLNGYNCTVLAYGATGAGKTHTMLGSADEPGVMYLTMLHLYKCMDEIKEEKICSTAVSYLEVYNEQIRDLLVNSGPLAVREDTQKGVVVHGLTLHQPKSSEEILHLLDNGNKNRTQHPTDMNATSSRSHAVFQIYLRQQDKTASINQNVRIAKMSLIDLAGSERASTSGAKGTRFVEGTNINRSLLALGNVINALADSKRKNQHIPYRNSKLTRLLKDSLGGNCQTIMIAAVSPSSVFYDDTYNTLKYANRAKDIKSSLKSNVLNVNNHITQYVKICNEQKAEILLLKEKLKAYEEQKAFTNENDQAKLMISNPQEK
Put plainly: Enzymatic activity test (ADP-Glo, microtubule-stimulated ATPase). It counts as biochemical. The following applies: 60 µg/mL microtubules, 25 µM ATP, 2.5 nM KIF18A protein, 120 min at ambient temperature, chemiluminescence; read-out: KIF18A IC50. Here is the method:
Materials: Human KIF18A (amino acid sequence 1-417) was purchased from Viva Biotech (Shanghai) Ltd.; the ADP-Glo™ protein kinase kit was acquired from Promega, USA; tubulin was sourced from Cytoskeleton, USA; and the 384-well assay plate and Envision multifunctional microplate reader were obtained from PerkinElmer, USA.
Enzymatic Activity Test: The compound powder was dissolved in DMSO to prepare a stock solution of 10 mM. Then gradient dilution was performed for the compounds in the microplate to achieve a final concentration of 0-10 µM. Then, 2.5 µL each of tubulin, compound, ATP, and KIF18A protein were added to the microplate in sequence for reaction at ambient temperature for 120 min. The final concentrations in the enzyme reaction were 60 µg/mL for microtubules, 25 µM for ATP, and 2.5 nM for KIF18A protein. After the enzyme reaction, 10 µL of ADP-GLO reaction reagent was added to each well and incubated at room temperature for 30 min. After that, 20 µL of detection reagent was added to each well and incubated at room temperature for 30 min in the dark. Finally, chemiluminescence detection was performed using the PerkinElmer Envision.

In another test the test system is OVCAR3 cells. Put plainly: Cell proliferation activity test (CyQUANT Direct). It counts as cell-based. The following applies: 3 days, 0.2% DMSO, CyQUANT fluorescence. Here is the method:
Materials and Cells: OVCAR3 cells were purchased from Nanjing Cobioer Biosciences Co., Ltd. RPMI-1640 medium, fetal bovine serum, and the CyQUANT Direct Cell Proliferation Assay kit were purchased from Thermo Fisher Scientific, USA; 96-well cell culture plates were sourced from Corning, USA.
Cell Culture: OVCAR3 cells were cultured with RPMI-1640 medium containing 10% fetal bovine serum and incubated in a 5% CO2 incubator at 37°C. Only cells in the logarithmic growth phase could be used for the test.
OVCAR3 cells were inoculated into a 96-well cell culture plate at 90 µL per well and incubated overnight in a 5% CO2 incubator at 37°C. The compound powder was dissolved in DMSO to prepare a stock solution of 10 mM. Then gradient dilution was performed for the compounds in the microplate to achieve a final concentration of 0-10 µM. 10 µL of cell culture medium containing compounds was added to each well to make the final DMSO content 0.2%. The cell plates were incubated in a 5% CO2 incubator at 37°C for 3 days. 100 µL of CyQUANT detection reagent was added to each well, reacted at 37°C for 60 min, and fluorescence detection was performed using the PerkinElmer Envision.

For a further test, the system named is HT29 cells. Nature of the test: CyQuant cell proliferation activity test. It counts as cell-based. The following applies: HT29 at 2000 cells per well, 3 days, 0.2% DMSO, XLFIT. Here is the method: Materials and Cells: HT29 cells were purchased from Nanjing Cobioer Biosciences Co., Ltd.; RPMI-1640 medium, fetal bovine serum, Trypsin-EDTA (0.25%), 96-well plates, and CyQuant reagents were purchased from ThermoFisher (USA); DMSO was purchased from SIGMA (USA).
Cell Culture: HT29 cells were cultured with RPMI-1640 containing 10% fetal bovine serum under the condition of 37°C and 5% CO2. Only cells in the logarithmic growth phase could be used for the test.
Cell Proliferation Activity Test: CyQuant reagent was used to detect the proliferation inhibitory activity of compounds on HT29 cells. The cell density was adjusted, and 100 µL per well was inoculated into a 96-well plate (HT29 at 2000 cells per well), then incubated overnight at 37°C and 5% CO2. Add compounds of various target concentrations (initial concentration of 3000 nM, 3-fold dilution, 9 concentration gradients), and make the DMSO content 0.2%. The cell plate was incubated at 37°C in 5% CO2 for 3 days. CyQuant reagent was added and incubated for 1 h. The plates were read by Envision, and IC50 was calculated using XLFIT.

Like-named read-outs stand apart in the source and are kept apart here.

For the compound “2-Hydroxy-N-(1^4,1^4,5^1,5^1-tetrafluoro-2^6-methyl-4-dioxo-5^2,5^3-dihydro-5^1H-3-aza-2(2,4)-pyrimidin-1(1,3),6(1,4)-dipipe ridin-5(4,5)-benzofurancyclononane-8-en-5^7-yl)-methanesulfonamide [Example 21]”, the IC50 worked out at 450 nM in test [1], 78 nM in the test with OVCAR3 cells and 85 nM with HT29 cells (read-out: HT-29 IC50).
As to `CC(=O)c1cc2c(cc1NS(=O)(=O)CCO)N1CCC(C/C=C/C3CN(CCC3(F)F)c3nc(C)cc(n3)-c3cn-2nn3)CC1` (racemic) [Example 88, N-((3^4Z,7E)-4^5-acetyl-1^4,1^4-difluoro-2^6-methyl-3^1H-2(2,4)-pyrimidin-1(1,3),5(1,4)-dipiperidin-3(4,1)-triazole-4(1,2)-benzocyclooct-7-en-4^4-yl)-2-hydroxyethane-1-sulfonamide], the IC50 was more than 3000 nM in test [1]; more than 3000 nM with OVCAR3 cells (Homo sapiens, OVCAR-3, 72 h); more than 3000 nM in the test with HT29 cells (Homo sapiens, HT-29, 72 h).
Turning to `Cc1cc2nc(n1)N1CCC(F)(F)C(/C=C\CC3CCN(CC3)c3cc(NS(=O)(=O)CCO)c4ccccc4c3C(=O)N2)C1` (single isomer, unassigned) [Example 1A, (cis)-N-(1^4,1^4-difluoro-2^6-methyl-4-oxo-3-aza-2(2,4)-pyrimidin-1(1,3),6(1,4)-dipiperidin-5(1,2)-naphthacyclonon-8-en-5^4-yl)-2-hydroxyethane-1-sulfonamide], the IC50 in test [1] was more than 3000 nM; with OVCAR3 cells, 2790 nM; in the test on HT29 cells (read-out: HT-29 IC50) it was 2790 nM.
For `Cc1cc2nc(n1)N1CCC(F)(F)C(CCCc3ccc(cc3)-c3cc(NS(=O)(=O)CCO)ccc3C(=O)N2)C1` (single isomer, unassigned) [Example 46B, N-(1^4,1^4-difluoro-2^6-methyl-4-oxo-3-aza-2(2,4)-pyrimidin-1(1,3)-piperidin-5(1,2),6(1,4)-diphenylheterocyclononane-5^4-yl)-2-hydroxyethane-1-sulfonamide], the IC50 in test [1] came to 57 nM; in the test with HT29 cells (read-out: HT-29 IC50), 36 nM.
Consider `Cc1cc2nc(n1)N1CCC(F)(F)C(/C=C\CC3CCN(CC3)c3cc(NS(=O)(=O)CCO)ccc3-c3cn-2nn3)C1` (single isomer, unassigned) [Example 84B, N-((3^4Z,7Z)-1^4,1^4-difluoro-2^6-methyl-3^1H-2(2,4)-pyrimidin-1(1,3),5(1,4)-dipiperidin-3(1,4)-triazole-4(1,2)-benzocyclooct-7-en-4^4-yl)-2-hydroxyethane-1-sulfonamide], for which the results for the 50% inhibitory concentration (IC50) (in test [1]; in the test on OVCAR3 cells) were 258 nM and 472 nM, respectively.
The corresponding values for `Cc1cc2nc(n1)C1CN(/C=C/CC3CCN(CC3)c3cc(NS(=O)(=O)CCO)ccc3-c3cn-2nn3)CCC1(F)F` (single isomer, unassigned) [Example 84C, N-((3^4Z,7E)-1^4,1^4-difluoro-2^6-methyl-3^1H-2(2,4)-pyrimidin-1(1,3),5(1,4)-dipiperidin-3(1,4)-triazole-4(1,2)-benzocyclooct-7-en-4^4-yl)-2-hydroxyethane-1-sulfonamide] are 186 nM and 38 nM.
Regarding `Cc1cc2nc(n1)C1CN(/C=C/CC3CCN(CC3)c3cc(NS(=O)(=O)CCO)ccc3-c3cn-2nn3)CCC1(F)F` (single isomer, unassigned) [Example 84D, N-((3^4Z,7E)-1^4,1^4-difluoro-2^6-methyl-3^1H-2(2,4)-pyrimidin-1(1,3),5(1,4)-dipiperidin-3(1,4)-triazole-4(1,2)-benzocyclooct-7-en-4^4-yl)-2-hydroxyethane-1-sulfonamide], the results for the IC50 (in test [1]; in the test with OVCAR3 cells) were 284 nM and more than 3000 nM, respectively.
On to `Cc1cc2nc(n1)N1CCC(F)=C(/C=C\CC3CCN(CC3)c3cc(NS(=O)(=O)CCO)c4c(c3C(=O)N2)CCC4=O)C1` [Example 3, N-(1^4-fluoro-2^6-methyl-5^1,4-dioxo-11,1^2,1^3,1^6,5^2,5^3-hexahydro-5^1H-3-aza-^2(2,4)-pyrimidin-1(1,5)-pyridin-6(1,4)-piperidin-5(4,5)-indenoheterononane-8-en-5^7-yl)-2-hydroxyethane-1-sulfonamide], for which the IC50 in test [1] worked out at 566 nM; in the test on OVCAR3 cells (Homo sapiens, OVCAR-3, 72 h), 1130 nM.
On to `Cc1cc2nc(n1)N1CCC(F)(F)C(CC=Cc3ccc(nc3)-c3cc(NS(=O)(=O)CCO)ccc3C(=O)N2)C1` (centres unmarked) [Example 48, N-(1^4,1^4-difluoro-2^6-methyl-4-oxo-3-aza-2(2,4)-pyrimidin-6(2,5)-pyridin-1(1,3)-piperidin-5(1,2)-phenylheterocyclonon-7-en-5^4-yl)-2-hydroxyethane-1-sulfonamide], for which the IC50 in the test with OVCAR3 cells (Homo sapiens, OVCAR-3, 72 h) was determined as 1210 nM; in the test with HT29 cells (Homo sapiens, HT-29, 72 h), 1560 nM.
Consider `Cc1cc2nc(n1)N1CCC(F)(F)C(CCCc3ccc(cc3)-c3cc(NS(=O)(=O)CCO)c(F)cc3C(=O)N2)C1` (centres unmarked) [Example 53, 2-Hydroxy-N-(1^4,1^4,5^5-trifluoro-2^6-methyl-4-oxo-3-aza-2(2,4)-pyrimidin-1(1,3)-piperidin-5(1,2),6(1,4)-diphenylheterocyclononane-5^4-yl)ethane-1-sulfonamide], for which the IC50 amounted to 49 nM in test [1] and 46 nM in the test on OVCAR3 cells (Homo sapiens, OVCAR-3, 72 h).
Taken in the same sequence, the figures for `Cc1cc2nc(n1)N1CCC(F)(F)C(/C=C\c3csc(c3)-c3cc(NS(=O)(=O)CCO)ccc3C(=O)N2)C1` (centres unmarked) [Example 67, N-(2^4,2^4-difluoro-1^6-methyl-7-oxo-8-aza-1(2,4)-pyrimidin-2(1,3)-piperidin-5(2,4)-thiophene-6(1,2)-benzeneheterocyclooct-3-en-6^5-yl)-2-hydroxyethane-1-sulfonamide] were 86 nM and 481 nM.
The corresponding values for `Cc1cc2nc(n1)N1CCC(F)=C(/C=C\CC3CCN(CC3)c3cc(NS(=O)(=O)CCO)ccc3-n3cc-2nn3)C1` [Example 82, N-((3^4Z,7Z)-1^4-fluoro-2^6-inethyl-1^1,1^2,1^3,1^6-tetrahydro-3^1H-2(2,4)-pyrimidin-1(1,5)-pyridin-5(1,4)-piperidin-3(4,1)-triazole-4(1,2)-benzylcyclooct-7-en-4^4-yl)-2-hydroxyethane-1-sulfonamide] are 1020 nM and 1280 nM.
`Cc1cc2nc(n1)N1CCC(F)(F)C(/C=C/CC3CCN(CC3)c3cc(NS(=O)(=O)CCO)c(C(=O)N(C)C)cc3-n3cc-2nn3)C1` (centres unmarked) [Example 93, (3^4Z,7E)-1^4,1^4-difluoro-4^4-((2-hydroxyethyl)sulfonamido)-2^6-methyl-3^1H-2(2,4)-pyrimidin-1(1,3),5(1,4)-dipiperidin-3(4,1)-triazole-4(1,2)-benzocyclooct-7-en-4^5carboxamide]: the IC50 in the test on OVCAR3 cells (Homo sapiens, OVCAR-3, 72 h) turned out to be 91 nM; in the test with HT29 cells (Homo sapiens, HT-29, 72 h), 194 nM.

As a reminder, the IC50 is the concentration that gives 50% inhibition.
